Positions of bridges follow the written chain, without caps; N, C: chain ends. Non-standard residues stand in square brackets, D forms with d. Residues, ends and D or L forms follow the SMILES beside them. Phe(4-F) = N[C@@H](Cc1ccc(F)cc1)C(=O)O; Gla = N[C@@H](CC(C(=O)O)C(=O)O)C(=O)O; Cha = N[C@@H](CC1CCCCC1)C(=O)O
Columns and labels:
[1] = target: T1, IL-6/IL-6R (Homo sapiens, UniProt P05231); assay: IL-6 – IL-6R competition ELISA; type: binding; conditions: compared to PN-1454
T1 construct: purchased PeproTech
T1 sequence (P05231 30-212): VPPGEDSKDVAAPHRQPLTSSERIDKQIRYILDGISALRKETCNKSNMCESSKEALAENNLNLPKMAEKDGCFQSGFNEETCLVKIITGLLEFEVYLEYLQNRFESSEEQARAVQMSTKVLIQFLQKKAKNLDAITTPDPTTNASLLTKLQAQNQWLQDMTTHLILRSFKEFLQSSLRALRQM
Description: Peptides were initially evaluated using a competitive enzyme-linked immunosorbent assay (ELISA). High binding 96-well microtiter plates (half-area, Corning Life Sciences, Corning, NY)) were coated with 0.1 μg per well of IL-6R (PeproTech, Rocky Hill, NJ) overnight at 4°C. The wells were then blocked for 2 h with a 1% BSA (Sigma, St. Louis, MO) solution containing 0.1% Tween-20 (Amresco, Solon, OH) and subsequently washed with wash buffer (PBS containing 0.1% Tween-20). Peptides were serially diluted in assay buffer (0.1% BSA, 0.05% Tween-20 in PBS) and incubated with a 50 pM biotinylated IL-6 (PeproTech) for 30 min at room temperature. This mixture was then transferred to an assay plate, and the plate incubated for 1 h. The plate was washed with wash buffer, and presence of bound IL-6 detected through addition of streptavidin poly-horseradish peroxidase conjugate (Pierce, Rockford IL). Plates were developed using a TMB substrate kit (Pierce) and stopped with 2N H2SO4. Inhibition of complex formation was measured as a reduction in absorbance at 450 nm.

[2] = Comparative PK of PEGylated peptides in rats; type: in vivo; conditions: rat; male rats, single SC dose 0.23 μmol/kg, plasma, LC-MS/MS, non-compartmental; read-out: PK half-life (t1/2) (converted)
Description: Male rats for pharmacokinetic studies were obtained from Harlan Laboratories (South Easton, MA. […] For all time points, blood samples were collected via retro-orbital eye bleed or exsanguination via abdominal aorta into tubes containing K2EDTA and were processed into plasma, which was placed in Eppendorf Protein LoBind tubes and stored frozen at approximately -70°C until quantitative bioanalysis.
The dosing solutions were formulated just prior to administration, in sterile 1X PBS with 0.1% BSA. Plasma sample extraction was performed by aliquoting 100 μL of each rat plasma sample into a standard 96-well plate. To each well, 400 μL of 5% formic acid in acetonitrile (containing 200 ng/mL of internal standard) was added. The plate was vortexed at high speed for approximately 10 min and then centrifuged for 15 min, 4700 x g at 4°C. Supernatant (425 μL) was transferred into a clean 96-well plate and evaporated to dryness under nitrogen at approximately 50°C. The extracts were then reconstituted in 50 μL of 1% formic acid in 60% acetonitrile.
Reconstituted extracts (5 μL) were analyzed by liquid chromatography-tandem mass spectrometry (LC-MS/MS) with positive electrospray ionization (QTrap 5500, AB SCIEX, Framingham, MA). […]

[3] = target: IL-6-induced pSTAT3 in U937 cells (Homo sapiens, UniProt P05231); assay: pSTAT3 HTRF assay in U937 cells; type: cell-based
Sequence of IL-6-induced pSTAT3 in U937 cells (P05231 30-212): as above
Description: Peptides were serially diluted in medium containing 10% fetal bovine serum (FBS)/4% DMSO, then added to recombinant IL-6 (Xtal Biostructures, Inc., Natick, MA) at 28.2 ng/mL and the resulting plate was incubated at room temperature with shaking for 2.5 h at 37°C. […] After incubation for 12 min at 37°C the cells were centrifuged at 4°C (1400 rpm for 5 min) and the media was removed from the plates. Cells were placed on ice and 50 μL lysis buffer (Cisbio Assays, Bedford MA) was added. Phosphorylation of STAT3 was detected as described by the provider (Cisbio Assays). Briefly, cells were lysed for 30 min at room temperature and then 16 μL of lysates was added to a 384-well Proxiplate (Perkin Elmer, Waltham, MA). Anti-STAT3-d2+anti pSTAT-3-K detection cocktail (4μL; Cisbio Assays) was then added to the wells and the plate covered with a plate sealer and returned to 4°C overnight. Plates were then read with an Envision plate reader at ex 340, em 615 and 665 nm. […] These mixtures were then added to U937 cells for 15 min at 37°C and pSTAT3 was detected as described above.

[4] = tested on: IL-6; conditions: cited from earlier work
Description: The inhibitory potency of PN-2921 was assessed in human whole blood ...

CC[C@H](C)[C@@H]1NC(=O)[C@H](CCCCN)NC(=O)CNC(=O)[C@H](Cc2c[nH]c3ccccc23)NC(=O)[C@H](CCCNC(=N)N)NC(=O)[C@H](CCC(N)=O)NC(=O)[C@H](CCC(=O)O)NC(=O)[C@H](CO)NC(=O)[C@H](CC(N)=O)NC(=O)[C@H](CC(C)C)NC(=O)[C@H](CC(N)=O)NC(=O)[C@@H]2CCCN2C(=O)[C@H](CC(=O)O)NC(=O)[C@H](CC(C)C)NC(=O)[C@H](Cc2ccccc2)NC(=O)[C@H](C)NC(=O)[C@H](CCC(=O)O)NC(=O)[C@H](CC(C)C)NC(=O)[C@H](CC(C)C)NC(=O)[C@H](CCCNC(=N)N)NC(=O)[C@H](CCCNC(=N)N)NC(=O)[C@H]([C@@H](C)CC)NC(=O)[C@@H](NC(=O)[C@H](CCC(N)=O)NC(=O)[C@H](CC(C)C)NC(=O)[C@H](CC(N)=O)NC(=O)[C@H](Cc2ccccc2)NC(C)=O)CSSC[C@@H](C(N)=O)NC(=O)[C@H](CC(=O)O)NC(=O)[C@H](CC(=O)O)NC(=O)[C@H](CC(N)=O)NC(=O)[C@H]([C@@H](C)CC)NC(=O)[C@H](CO)NC(=O)[C@H](CC(=O)O)NC1=O [PN-1484] (Ac-FNLQCIRRLLEAFLDPNLNSEQRWGKIDSINDDC-NH2; disulfide 5-34 (inferred))
fold improvement in IC50 in the competitive ELISA [1]: ~ 20 fold

CC[C@H](C)[C@@H]1NC(=O)[C@@H](NC(=O)[C@H](CC(=O)O)NC(=O)[C@H](CC2CCCCC2)NC(=O)[C@H](CC(=O)O)NC(=O)[C@H](CO)NC(=O)[C@H](CCC(N)=O)NC(C)=O)CSSC[C@@H](C(=O)N[C@@H](CCC(=O)O)C(=O)O)NC(=O)[C@H](CCC(=O)O)NC(=O)[C@H](CC(=O)O)NC(=O)[C@H](CC(N)=O)NC(=O)[C@H]([C@@H](C)CC)NC(=O)[C@H](CCCCN)NC(=O)[C@H](CC(C(=O)O)C(=O)O)NC(=O)[C@H]([C@@H](C)CC)NC(=O)[C@H](CCCCN)NC(=O)[C@H](CCC(=O)O)NC(=O)[C@H](Cc2c[nH]c3ccccc23)NC(=O)[C@H](CCCNC(=N)N)NC(=O)[C@H](CCC(N)=O)NC(=O)[C@H](CCC(=O)O)NC(=O)[C@H](CCC(=O)O)NC(=O)[C@H]([C@@H](C)O)NC(=O)[C@H](CC(C)C)NC(=O)[C@H](CC(N)=O)NC(=O)[C@@H]2CCCN2C(=O)[C@H](CC(=O)O)NC(=O)[C@H](CC(C)C)NC(=O)[C@H](Cc2ccc(F)cc2)NC(=O)[C@H](C)NC(=O)[C@H](CCC(=O)O)NC(=O)[C@H](CC(C)C)NC(=O)[C@H](CC(C)C)NC(=O)[C@H](CCCNC(=N)N)NC(=O)[C@H](Cc2c[nH]cn2)NC1=O [PN-2365] (Ac-QSD[Cha]DCIHRLLEA[Phe(4-F)]LDPNLTEEQRWEKI[Gla]KINDECE-OH; disulfide 6-35)
half-life [2]: 3.4 h

CC[C@H](C)[C@@H]1NC(=O)[C@@H](NC(=O)[C@H](CC(=O)O)NC(=O)[C@H](CC2CCCCC2)NC(=O)[C@H](CC(=O)O)NC(=O)[C@H](CO)NC(=O)[C@H](CCC(N)=O)NC(C)=O)CSSC[C@@H](C(=O)N[C@@H](CCC(=O)O)C(=O)O)NC(=O)[C@H](CCC(=O)O)NC(=O)[C@H](CC(=O)O)NC(=O)[C@H](CC(N)=O)NC(=O)[C@H]([C@@H](C)CC)NC(=O)[C@H](CCCCN)NC(=O)[C@H](CC(C(=O)O)C(=O)O)NC(=O)[C@H]([C@@H](C)CC)NC(=O)[C@H](CCCNC(=N)N)NC(=O)[C@H](CCC(=O)O)NC(=O)[C@H](Cc2c[nH]c3ccccc23)NC(=O)[C@H](CCCNC(=N)N)NC(=O)[C@H](CCC(N)=O)NC(=O)[C@H](CCC(=O)O)NC(=O)[C@H](CCC(=O)O)NC(=O)[C@H]([C@@H](C)O)NC(=O)[C@H](CC(C)C)NC(=O)[C@H](CC(N)=O)NC(=O)[C@@H]2CCCN2C(=O)[C@H](CC(=O)O)NC(=O)[C@H](CC(C)C)NC(=O)[C@H](Cc2ccc(F)cc2)NC(=O)[C@H](C)NC(=O)[C@H](CCC(=O)O)NC(=O)[C@H](CC(C)C)NC(=O)[C@H](CC(C)C)NC(=O)[C@H](CCCNC(=N)N)NC(=O)[C@H](Cc2c[nH]cn2)NC1=O [PN-2519] (Ac-QSD[Cha]DCIHRLLEA[Phe(4-F)]LDPNLTEEQRWERI[Gla]KINDECE-OH; disulfide 6-35)
fold improvement in cell-based activity ([3]; compared to PN-1974, U937 pSTAT3): ~ 1000 fold | antagonist activity in the IL-6 pSTAT3 assay in U937 cells (Fig 2C) ([3]; effect of PEG molecular weight, PEGylation at position 29): comparable

siltuximab: monoclonal antibody specific for IL-6
potency [4]: pM range
